# In patent publication US20050049220A1, “Dosing regimen for Flaviviridae therapy” (priority 2003, published 2005):
# Structures can show the parent of a compound that is named as a salt. Where two headings read alike, the source gives them in different places.
# Columns and labels:
# [1] = tested on: HCV replicon; assay: HCV replicon assay: HCV RNA by Q-RT-PCR, 4 days exposure; assay type: cell-based, hepatitis C virus (HCV); settings: for log reduction at 10 µM: read-out: Corrected HCV RNA log10 reduction at 10 μM
# Method: Antiviral screening assays can be done in the same media without G418 as follows: in order to keep cells in logarithmic growth phase, seed cells in a 96-well plate at low density, for example 1000 cells per well. Add the test compound immediate after seeding the cells and incubate for a period of 3 to 7 days at 37° C. in an incubator. Media is then removed, and the cells are prepared for total nucleic acid extraction (including replicon RNA and host RNA). Replicon RNA can then be amplified in a Q-RT-PCR protocol, and quantified accordingly. […] This value is called DeltaCt (ΔCt or DCt).
# This value is called DeltaCt (ΔCt or dCt).
# [2] = tested on: Huh-7 cells; assay: Cellular rRNA levels / cytotoxicity in HCV replicon cells; settings: for log10 RNA reduction at 100 μM, rRNA: 4 days, HCV replicon transfected Huh-7 cells
# From the text: In a typical setting, a compound might reduce both the host RNA polymerase activity and the replicon-encoded polymerase activity. Therefore, quantification of rRNA (or any other host RNA polymerase I product) or beta-actin mRNA (or any other host RNA polymerase II) and comparison with RNA levels of the no-drug control is a relative measurement of the effect of the test compound on host RNA polymerases.
# With the availability of both the HCV ΔCt data and the rRNA ΔCt, a specificity parameter can be introduced. This parameter is obtained by subtracting both ΔCt values from each other.
# IFN-α-2a and ribavirin were tested over a range of concentrations for their ability to reduce the HCV RNA levels in exponentially growing replicon cells after 4 days of exposure as described (Stuyver, L. et al. “A ribonucleoside analogue that blocks the replication of bovine viral diarrhea and hepatitis C viruses in culture” Antimicrob. Agents Chemother. 2003, 47, 244-254).
# Gemcitabine was dissolved in DMSO and added to the culture media of a cellular model system of Huh7 cells harboring self-replicating HCV RNA, at final concentrations ranging from […]. In such experiments, one way to express the antiviral effectiveness of a compound is to subtract the threshold reverse-transcriptase polymerase chain reactions (RT-PCR) cycle of the test compound with the average threshold RT-PCR cycle of the negative control. This value is called DeltaCt (ΔCt or dCt). With the availability of both the HCV ΔCt data and the rRNA ΔCt, a specificity parameter can be introduced. This parameter is obtained by subtracting both ΔCt values from each other.
# [3] = tested on: HCV replicon cells (Huh-7); assay: 7-day cell growth dynamics, trypan-blue cell count; settings: range of testing 50-1,000 nM; 7-day dynamics
# Method: FIG. 2 is a graphical depiction of the dynamics of cell growth and HCV RNA levels after exposure to control anti-HCV compounds. HCV replicon cells were seeded at approximately 10^4 cells per well in a 24-well plate. Over a 7-day period, cells were counted daily, and rRNA and HCV RNA were quantified by Q-RT-PCR. A: IFN-α-2a at 100 IU/ml; B: ribavirin at 100 μM. ●: cell proliferation in absence of compound; ◯: cell proliferation in presence of compound; ▾: HCV RNA levels in untreated cells; ∇: HCV RNA levels in the presence of compound. The curves shown are averages of 3 independent experiments.
# Therefore, experiments were conducted to monitor HCV RNA levels and the cell growth dynamics over a 7-day period.
# The dynamics of HCV replicon cells exposed to these inhibitors (at their EC90 value) was monitored over a 7-day period.
# [4] = tested on: HCV replicon cells; assay: Prevention studies with natural ribo- or 2′-deoxy nucleosides; assay type: cell-based, human; settings: test compound at 96 h EC90 value; nucleosides at 50 μM
# [5] = tested on: HCV; assay: Single treatment of an HCV-infected patient, viral load; assay type: in vivo, human; settings: for tolerance / adverse events: patient with multifocal HCC, cirrhosis, ischaemic hepatitis
# Method: The tolerance was acceptable, and thus the next day the patient was given a second dosage of approximately 700 mg of gemcitabine. Before the second dosage the baseline viral load was 6.49 log copies/mL.
# [6] = 100 μM, 4 days, HCV replicon transfected Huh-7 cells
# [7] = 96 h incubation, read-out: Corrected HCV RNA EC90
# [8] = Hepatitis C virus, 96 h, read-out: Corrected HCV RNA log10 reduction at 100 μM
# [9] = Hepatitis C virus, 96 h, 100 μM, 4 days, HCV replicon transfected Huh-7 cells, read-out: log10 RNA reduction at 100 μM, HCV
# [10] = Hepatitis C virus, 96 h incubation, read-out: Corrected HCV RNA EC90
# [11] = Hepatitis C virus, 96 h, 10 μM, corrected for rRNA
# [12] = Hepatitis C virus, 96 h, 100 μM, corrected for rRNA, read-out: Corrected HCV RNA log10 reduction at 100 μM
# [13] = Hepatitis C virus, 96 h, read-out: Corrected HCV RNA EC90
# [14] = Hepatitis C virus, Huh-7, 96 h, read-out: log10 RNA reduction at 100 μM, HCV
# [15] = second dosage approximately 700 mg
Structure (SMILES),"log10 RNA reduction at 100 μM, rRNA [2] [log10]","log reduction at 10 µM ([1]; Hepatitis C virus, 96 h)","log reduction at 100 µM [1, 8]","log reduction at 100 µM [1, 9]","EC90 [1, 10] [µM]",further results
O=c1cnn([C@@H]2O[C@H](CO)[C@@H](O)[C@H]2O)c(=S)[nH]1 [2-thio-6-azauridine],−0.02 ± 0.12,,,,,"Corrected HCV RNA log10 reduction at 10 μM ([1]; 10 μM, corrected for rRNA): 0.12 ± 0.10 log10; log10 RNA reduction at 100 μM, HCV [1, 6]: 0.16 ± 0.04 log10; Corrected HCV RNA log10 reduction at 100 μM ([1]; 100 μM, corrected for rRNA): 0.19 ± 0.09 log10; EC90 [1, 7]: > 100 µM"
O=c1[nH]c(=O)n([C@H]2C[C@H](O)[C@@H](CO)O2)cc1F [2′-deoxy-5-fluorouridine],0.73 ± 0.35,0.23 ± 0.05,0.04 ± 0.25,0.76 ± 0.06,> 100,
O=c1cnn([C@@H]2O[C@H](CO)[C@@H](O)[C@H]2O)c(=O)[nH]1 [6-azauridine],0.61 ± 0.18,,,0.25 ± 0.09,> 100,"log reduction at 10 µM [1, 11]: 0.12 ± 0.05; log reduction at 100 µM [1, 12]: -0.36 ± 0.16"
"Cc1c(-c2ccc(-c3ccccc3F)cc2)nc2ccc(F)cc2c1C(=O)O [Brequinar (NSC-368390), Brequinar]",0.29 ± 0.01,,,-0.05 ± 0.05,> 100,"log reduction at 10 µM [1, 11]: -0.17 ± 0.09; log reduction at 100 µM [1, 12]: -0.34 ± 0.04"
COc1c(C)c2c(c(O)c1CCOP(=O)(O)CP(=O)(O)OC[C@H]1O[C@@H](n3cnc4c(N)ncnc43)[C@H](O)[C@@H]1O)C(=O)OC2 [C2-MAD],1.00 ± 0.15,,,,,"Corrected HCV RNA log10 reduction at 10 μM ([1]; 10 μM, corrected for rRNA): 0.36 ± 0.21 log10; log10 RNA reduction at 100 μM, HCV [1, 6]: 1.09 ± 0.21 log10; Corrected HCV RNA log10 reduction at 100 μM ([1]; 100 μM, corrected for rRNA): 0.08 ± 0.24 log10; EC90 [1, 7]: > 100 µM"
"Nc1ccn([C@@H]2C=C(CO)[C@@H](O)[C@H]2O)c(=O)n1 [CPE-C, cyclopentenylcytosine]",1.21 ± 0.16,,,2.47 ± 0.33,,"EC90 [1, 7]: 2.5 µM; log reduction at 10 µM [1, 11]: 1.43 ± 0.01; log reduction at 100 µM [1, 12]: 1.26 ± 0.51"
CC(=O)N(O)CCCCCNC(=O)CCC(=O)N(O)CCCCCNC(=O)CCC(=O)N(O)CCCCCN [Deferoxamine],0.92 ± 0.08,,,,> 100,"Corrected HCV RNA log10 reduction at 10 μM ([1]; 10 μM, corrected for rRNA): 0.17 ± 0.11 log10; log reduction at 100 µM [1, 12]: 0.08 ± 0.03"
"O=C1C(O)=C(CC=C(Cl)Cl)C(=O)c2ccccc21 [Dichloroallyl lawsone (NSC-126771), Dichloroallyl lawsone]",2.13 ± 0.15,,,,,"Corrected HCV RNA log10 reduction at 10 μM ([1]; 10 μM, corrected for rRNA): −0.52 ± 0.01 log10; log10 RNA reduction at 100 μM, HCV [1, 6]: 1.27 ± 0.02 log10; Corrected HCV RNA log10 reduction at 100 μM ([1]; 100 μM, corrected for rRNA): −0.86 ± 0.17 log10; EC90 [1, 7]: > 100 µM"
Nc1n[nH]c(N)n1 [Guanazole],0.07 ± 0.03,0.05 ± 0.08,0.32 ± 0.08,,,"EC90 [1, 13]: > 100 µM; log reduction at 100 µM [1, 14]: 0.25 ± 0.11"
NC(=O)NO [Hydroxyurea],0.25 ± 0.20,,-0.08 ± 0.16,0.17 ± 0.08,> 100,"log reduction at 10 µM [1, 11]: 0.06 ± 0.04"
CN(Cc1cnc2nc(N)nc(N)c2n1)c1ccc(C(=O)N[C@@H](CCC(=O)O)C(=O)O)cc1 [Methotrexate],0.07 ± 0.10,0.15 ± 0.01,0.11 ± 0.09,0.18 ± 0.01,> 100,
NC(=O)c1ncn([C@@H]2O[C@H](CO)[C@@H](O)[C@H]2O)c1O [Mizoribine],0.21 ± 0.50,-0.14 ± 0.12,0.08 ± 0.82,0.29 ± 0.74,> 100,
COc1c(C)c2c(c(O)c1C/C=C(\C)CCC(=O)O)C(=O)OC2 [Mycophenolic acid],1.09 ± 0.28,0.22 ± 0.01,0.07 ± 0.47,1.15 ± 0.43,> 100,
"O=C(O)C[C@H](NC(=O)CP(=O)(O)O)C(=O)O [PALA, N-(Phosphonoacetyl)-L-aspartate]",0.48 ± 0.02,1.18 ± 0.11,1.3 ± 0.05,1.77 ± 0.02,,"EC90 [1, 13]: 7.6 µM"
Nc1ccn(C2OC(CO)C(O)C2=CF)c(=O)n1 (centres unmarked) [Tezacytabine],1.78 ± 0.69,,,,,"Corrected HCV RNA log10 reduction at 10 μM ([1]; 10 μM, corrected for rRNA): 0.63 ± 0.07 log10; log10 RNA reduction at 100 μM, HCV [1, 6]: 1.59 ± 0.08 log10; Corrected HCV RNA log10 reduction at 100 μM ([1]; 100 μM, corrected for rRNA): −0.19 ± 0.49 log10; EC90 [1, 7]: > 100 µM"
NC(=O)c1csc([C@@H]2O[C@H](CO)[C@@H](O)[C@H]2O)n1 [Tiazofurin],0.99 ± 0.35,0.04 ± 0.1,-0.13 ± 0.37,,,"EC90 [1, 13]: > 100 µM; log reduction at 100 µM [1, 14]: 0.86 ± 0.27"
"Nc1ccn([C@@H]2O[C@H](CO)[C@@H](O)C2(F)F)c(=O)n1 [dFdC, 2′-deoxy-2′,2′-difluorocytidine]",,1.32 ± 0.08,,,,"non-cytotoxic concentration [3]: could not be found; prevention of antiviral and cytostatic effects by natural nucleosides [4]: prevented by 2′-deoxycytidine; Corrected HCV RNA EC90 ([1]; 96 h incubation): Too toxic; antiviral activity on HCV replicon RNA ([1]; HCV replicon cells): most potent inhibitor of both replicon RNA and cells; EC90 ([1]; Hepatitis C virus, Huh-7, 96 h, 4-days incubation, Huh7 cells harboring self-replicating HCV RNA, read-out: EC90, reduction of replicon HCV RNA): ~0.07 µM; EC50 ([1]; Hepatitis C virus, Huh-7, Huh7 cells harboring self-replicating HCV RNA, read-out: EC50, reduction of HCV RNA levels): 0.04 µM; log10 RNA reduction, HCV ([1]; dFdC tested initially at 50 μM): 1.87 ± 0.16 log10; Corrected HCV RNA log10 reduction ([1]; dFdC tested initially at 50 μM, corrected for rRNA): 1.29 ± 0.11 log10; IC50 ([2]; Homo sapiens, Huh-7): 0.24 µM; log10 RNA reduction, rRNA ([2]; dFdC tested initially at 50 μM): 0.59 ± 0.05 log10; tolerance / adverse events ([5]; listed as gemcitabine): heart problems; baseline viral load before the second dosage ([5]; patient, day after 1200 mg gemcitabine HCl with oxaliplatine): 6.49 log copies/mL; HCV RNA eight hours after the second dosage [5, 15]: 4.04 log copies/mL; drop in HCV RNA in eight hours [5, 15]: ~2.5 log"
O=c1ccn(C2OC(CO)C(O)C2(F)F)c(=O)[nH]1 (centres unmarked) [dFdU],,,,,,"dCT HCV ([1]; 7.0 μM): 6.39; ddCt ([1]; 7.0 μM, HCV dCt minus rRNA dCt): 4.42; dCt rRNA ([2]; 7.0 μM): 1.96"
Nc1ccn([C@@H]2O[C@H](CO)[C@@H](O)C2(F)F)c(=O)n1 [gemcitabine HCl],,,,,,tolerance / adverse events ([5]; HCl): acceptable
